Reference: patent US20230203175A1, “Anti-CD40 Antibody Combination Treatment for Cancer” (SEAGEN INC., priority 2020, published 2023)

Experiments:
cytokines (IFN-γ, IL-10) = assay: Cytokine production after administration to a patient; type: in vivo; settings: when administered to a patient
FcγIII receptors = settings: as described in US20170333556A1; cited from earlier work
CD40 signaling pathway = settings: as described in US20170333556A1; cited from earlier work
murine CD40 = murine CD40 (Mus musculus, UniProt P27512); assay: Recognition of murine CD40; type: binding
Chain of murine CD40 (P27512 20-289): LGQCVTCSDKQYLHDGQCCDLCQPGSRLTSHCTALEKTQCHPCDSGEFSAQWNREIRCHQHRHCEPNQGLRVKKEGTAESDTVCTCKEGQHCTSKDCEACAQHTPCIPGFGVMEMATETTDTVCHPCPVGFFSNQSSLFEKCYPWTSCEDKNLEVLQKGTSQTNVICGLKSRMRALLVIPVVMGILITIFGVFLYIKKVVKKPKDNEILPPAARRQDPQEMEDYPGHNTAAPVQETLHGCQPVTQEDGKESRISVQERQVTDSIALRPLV

SEA-CD40: non-fucosylated humanized IgG1 anti-CD40 monoclonal antibody; heavy and light chains SEQ ID NOs: 1 and 2
production of cytokines, including interferon-γ (IFN-γ) (cytokines (IFN-γ, IL-10)): induce production of cytokines | production of immune-dampening cytokines, such as interleukin-10 (IL-10) (cytokines (IFN-γ, IL-10)): does not induce production | binding to FcγIII receptors (FcγIII receptors): enhanced binding | ability to activate the CD40 signaling pathway in immune cells (CD40 signaling pathway): enhanced ability | recognition of murine CD40 (murine CD40): does not recognize murine CD40
